Assay results reported in the NIST ThermoML archive (doi:10.1016/j.jct.2015.07.014).
Values joined by “and” are separate entries in the source; they are usually repeats but may differ in a detail not shown here. Equal values may be shown once.

Settings: Fluid (supercritical or subcritical phases), Buoyancy - hydrostatic balance with magnetic suspension - one sinker

[Ar] [argon]
Settings | mass density [kg/m3]
298.2 K, 30957 kPa | 499.118
298.22 K, 26965 kPa | 444.81
298.22 K, 28963 kPa | 472.591
298.23 K, 10975 kPa | 185.811
298.23 K, 12977 kPa | 220.515
298.23 K, 14975 kPa | 254.862
298.23 K, 18968 kPa | 321.888
298.23 K, 20970 kPa | 354.268
298.23 K, 22969 kPa | 385.599
298.23 K, 24967 kPa | 415.802
298.24 K, 16973 kPa | 288.723
348.19 K, 30960 kPa | 409.077
348.21 K, 10976 kPa | 153.363
348.21 K, 19007 kPa | 262.654
348.21 K, 28963 kPa | 386.293
348.22 K, 18971 kPa | 262.184
348.22 K, 28964 kPa | 386.289
348.23 K, 17005 kPa | 236
348.24 K, 15014 kPa | 209.051
348.24 K, 16969 kPa | 235.508
348.24 K, 26966 kPa | 362.782
348.24 K, 30961 kPa | 409.019
348.25 K, 12974 kPa | 181.049
348.25 K, 32887 kPa | 430.274
348.26 K, 21009 kPa | 288.719
348.26 K, 24967 kPa | 338.568
348.27 K, 14970 kPa | 208.427
348.27 K, 20969 kPa | 288.199
348.27 K, 22970 kPa | 313.733
348.27 K, 26989 kPa | 363.019
348.28 K, 11019 kPa | 153.917
348.28 K, 13012 kPa | 181.556
348.28 K, 25000 kPa | 338.949
348.29 K, 23010 kPa | 314.199
397.91 K, 12975 kPa | 155.101
397.98 K, 14981 kPa | 178.323
398.1 K, 24969 kPa | 288.472
398.17 K, 16979 kPa | 201.05
398.19 K, 30985 kPa | 349.444
398.2 K, 28999 kPa | 329.764
398.21 K, 32960 kPa | 368.494
398.23 K, 26971 kPa | 309.171
398.23 K, 30962 kPa | 349.179
398.24 K, 11017 kPa | 132.022
398.24 K, 19010 kPa | 223.818
398.25 K, 21010 kPa | 245.897
398.26 K, 13011 kPa | 155.367
398.26 K, 23005 kPa | 267.5
398.28 K, 28964 kPa | 329.33
398.3 K, 17005 kPa | 201.261
398.31 K, 15013 kPa | 178.513
398.35 K, 27004 kPa | 309.394
398.47 K, 25004 kPa | 288.536
398.61 K, 18975 kPa | 223.208
398.87 K, 20975 kPa | 245.092
398.92 K, 22970 kPa | 266.619

N#N [nitrogen]
Settings | mass density
298.12 K, 32109 kPa | 311.953 kg/m3
298.22 K, 30959 kPa | 303.674 kg/m3
298.23 K, 10976 kPa | 123.118 kg/m3
298.23 K, 12976 kPa | 144.452 kg/m3
298.23 K, 16971 kPa | 185.161 kg/m3
298.23 K, 19010 kPa | 204.785 kg/m3
298.23 K, 20970 kPa | 222.928 kg/m3
298.23 K, 22971 kPa | 240.653 kg/m3
298.23 K, 26968 kPa | 273.675 kg/m3
298.23 K, 26969 kPa | 273.679 kg/m3
298.23 K, 28965 kPa | 289.039 kg/m3
298.23 K, 28966 kPa | 289.035 kg/m3
298.24 K, 11019 kPa | 123.569 kg/m3
298.24 K, 13017 kPa | 144.868 kg/m3
298.24 K, 14976 kPa | 165.17 kg/m3
298.24 K, 17014 kPa | 185.557 kg/m3
298.24 K, 18975 kPa | 204.467 kg/m3
298.24 K, 21004 kPa | 223.219 kg/m3
298.24 K, 22992 kPa | 240.817 kg/m3
298.24 K, 24970 kPa | 257.55 kg/m3
298.24 K, 24971 kPa | 257.546 kg/m3
298.25 K, 15014 kPa | 165.544 kg/m3
298.33 K, 30945 kPa | 303.445 kg/m3
348.21 K, 28966 kPa | 244.176 kg/m3
348.23 K, 17010 kPa | 154.974 kg/m3
348.23 K, 32959 kPa | 269.893 kg/m3
348.24 K, 18974 kPa | 170.907 kg/m3
348.24 K, 26968 kPa | 230.548 kg/m3
348.24 K, 28967 kPa | 244.162 kg/m3
348.25 K, 10981 kPa | 103.086 kg/m3
348.25 K, 13016 kPa | 121.065 kg/m3
348.25 K, 22970 kPa | 201.759 kg/m3
348.25 K, 24970 kPa | 216.421 kg/m3
348.25 K, 26979 kPa | 230.612 kg/m3
348.25 K, 30963 kPa | 257.253 kg/m3 and 257.258 kg/m3
348.26 K, 15015 kPa | 138.272 kg/m3
348.26 K, 16972 kPa | 154.648 kg/m3
348.26 K, 20971 kPa | 186.577 kg/m3
348.27 K, 11019 kPa | 103.42 kg/m3
348.27 K, 21013 kPa | 186.886 kg/m3
348.28 K, 12976 kPa | 120.712 kg/m3
348.28 K, 14976 kPa | 137.928 kg/m3
348.28 K, 19011 kPa | 171.174 kg/m3
348.28 K, 23006 kPa | 202.007 kg/m3
348.29 K, 25001 kPa | 216.612 kg/m3
398.17 K, 21012 kPa | 161.802 kg/m3
398.19 K, 23005 kPa | 175.071 kg/m3
398.21 K, 27000 kPa | 200.503 kg/m3
398.22 K, 19011 kPa | 148.062 kg/m3
398.22 K, 28993 kPa | 212.616 kg/m3
398.22 K, 32961 kPa | 235.672 kg/m3
398.23 K, 25002 kPa | 187.957 kg/m3
398.24 K, 20972 kPa | 161.499 kg/m3
398.24 K, 26967 kPa | 200.287 kg/m3
398.24 K, 28966 kPa | 212.445 kg/m3
398.25 K, 12976 kPa | 104.354 kg/m3
398.25 K, 22969 kPa | 174.806 kg/m3
398.26 K, 24969 kPa | 187.737 kg/m3
398.26 K, 30962 kPa | 224.219 kg/m3
398.27 K, 30977 kPa | 224.298 kg/m3
398.28 K, 14977 kPa | 119.222 kg/m3
398.28 K, 18975 kPa | 147.786 kg/m3
398.29 K, 16973 kPa | 133.67 kg/m3
398.3 K, 13014 kPa | 104.623 kg/m3
398.32 K, 11005 kPa | 89.328 kg/m3
398.36 K, 17012 kPa | 133.928 kg/m3
398.39 K, 15006 kPa | 119.391 kg/m3
